Measured values: patent US4749717A, “Dopamine-beta-hydroxylase inhibitors” (SmithKline Beckman Corporation, priority 1987, dated 1988)

What was measured:
[1] = test system: spontaneously hypertensive rats; test: mean arterial blood pressure in spontaneously hypertensive rats; assay type: in vivo, rat; details: 50 mg/kg intraperitoneally
Experimental: Further, spontaneously hypertensive rats were treated with a suspension or solution of 1-(2-thienylmethyl)imidazole-2-thiol at a dose of 50 mg/kg intraperitoneally, and mean arterial blood pressure was monitored for 260 minutes using indwelling cannulae in the tail arteries. […] The maximal blood pressure reduction was approximately 25 to 30 mmHg.

[2] = target: T1, DBH (dopamine-β-hydroxylase) (Bos taurus, UniProt P15101); test: in vitro DBH inhibition (conversion of tyramine to octopamine; spectrophotometric absorbance at 330 nm); assay type: biochemical; details: concentration of compound at which DBH activity was halved
T1 sequence (P15101 1-610): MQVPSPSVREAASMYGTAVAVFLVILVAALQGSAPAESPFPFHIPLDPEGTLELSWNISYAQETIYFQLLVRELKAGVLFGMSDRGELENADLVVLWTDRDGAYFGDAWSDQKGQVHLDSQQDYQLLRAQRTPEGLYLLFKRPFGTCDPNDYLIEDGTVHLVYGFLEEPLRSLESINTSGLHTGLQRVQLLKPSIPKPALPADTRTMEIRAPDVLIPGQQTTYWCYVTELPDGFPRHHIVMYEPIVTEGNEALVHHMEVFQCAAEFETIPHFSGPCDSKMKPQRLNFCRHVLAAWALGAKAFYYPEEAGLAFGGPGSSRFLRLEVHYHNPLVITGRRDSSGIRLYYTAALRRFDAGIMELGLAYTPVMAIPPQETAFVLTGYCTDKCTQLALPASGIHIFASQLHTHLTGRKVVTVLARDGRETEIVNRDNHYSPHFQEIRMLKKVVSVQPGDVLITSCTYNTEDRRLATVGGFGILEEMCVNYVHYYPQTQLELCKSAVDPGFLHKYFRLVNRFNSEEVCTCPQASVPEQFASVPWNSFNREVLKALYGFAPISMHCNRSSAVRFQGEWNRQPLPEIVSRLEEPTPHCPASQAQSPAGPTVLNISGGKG
Experimental: Listed in Table I are the compounds of the invention that were tested for in vitro DBH inhibition by a standard procedure for assaying conversion of tyramine to octopamine in the presence of DBH. J. J. Pisano, et al., Biochim. Biophys. Acta, 43, 566-568 (1960). Octopamine was assayed following sodium periodate oxidation to p-hydroxybenzaldehyde by measuring spectrophotometric absorbance at 330 nm.

[3] = target: T2, DBH (dopamine-β-hydroxylase) (Homo sapiens, UniProt P09172); details: literature; cited from earlier work
T2 sequence (P09172 1-617): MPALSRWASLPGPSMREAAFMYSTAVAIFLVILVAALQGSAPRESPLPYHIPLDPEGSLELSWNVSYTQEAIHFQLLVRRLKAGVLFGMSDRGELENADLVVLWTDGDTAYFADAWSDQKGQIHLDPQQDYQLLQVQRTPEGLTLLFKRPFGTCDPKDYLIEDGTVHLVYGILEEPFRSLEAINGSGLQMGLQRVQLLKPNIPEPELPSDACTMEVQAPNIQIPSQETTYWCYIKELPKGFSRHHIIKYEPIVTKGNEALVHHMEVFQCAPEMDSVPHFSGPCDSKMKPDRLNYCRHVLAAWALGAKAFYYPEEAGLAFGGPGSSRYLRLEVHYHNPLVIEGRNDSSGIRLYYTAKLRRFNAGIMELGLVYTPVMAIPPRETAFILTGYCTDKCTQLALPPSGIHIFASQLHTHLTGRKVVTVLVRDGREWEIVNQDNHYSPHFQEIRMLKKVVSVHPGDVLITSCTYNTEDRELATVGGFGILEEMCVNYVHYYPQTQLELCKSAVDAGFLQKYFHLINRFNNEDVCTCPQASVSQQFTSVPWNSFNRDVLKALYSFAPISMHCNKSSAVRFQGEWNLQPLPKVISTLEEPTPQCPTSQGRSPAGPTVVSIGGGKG

[4] = Teresawa et al.; cited from earlier work
[5] = Ehrreich et al.; cited from earlier work

Row | Compound | DBH inhibition (in words) [3] | further results
1 | Sc1nccn1Cc1cccs1 [1-(2-thienylmethyl)imidazole-2-thiol, 1-(2-Thienylmethyl)Imidazole-2-Thiol] |  | time after treatment to significant blood pressure reductions [1]: ≤ 60 min; maximal blood pressure reduction ([1]; mean arterial blood pressure, approximately): 25 to 30 mmHg; blood pressure reduction compared to vehicle-treated controls ([1]; monitored for 260 minutes): significant blood pressure reductions; IC50 [2]: 13 µM
2 | CN(C)C(=S)SCc1ccc(C(=O)O)nc1 [5-(dimethyldithiocarbamoylmethyl)picolinic acid] | DBH inhibitors | 
3 | CCCCc1ccc(C(=O)O)nc1 [fusaric acid] |  | hepatotoxicity (in words) [4]: hepatotoxic
4 | CCCCc1ccc(C(N)=O)nc1 [Bupicomide, 5-(n-butyl)picolinamine] | DBH inhibitor | antihypertensive activity (in words) [5]: has antihypertensive activity
5 | NNCc1ccccc1 [benzylhydrazine] | apparently act as competitive inhibitors | 
6 | O=C(O)c1ccc(CCC(Br)CBr)cn1 (centres unmarked) [5-(3,4-dibromobutyl)picolinic acid] | DBH inhibitors | 
7 | O=C(O)c1ccc(CCCCCl)cn1 [5-(4-chlorobutyl) picolinic acid] | inhibit DBH | 
8 | NOCc1ccccc1 [Benzyloxyamine, benzyloxyamine] | apparently act as competitive inhibitors | 
9 | NCC=Cc1cccs1 [3-(2-thienyl)allylamine] | potent, time-dependent DBH inhibitors | 
10 | Sc1nccn1Cc1ccsc1 [1-(3-thienylmethyl)imidazole-2-thiol, 1-(3-Thienylmethyl)imidazole-2-thiol] |  | IC50 [2]: 7.4 µM
